Experimental data published in patent US12172995B2, “Substituted indole and indazole compounds” (BRISTOL-MYERS SQUIBB COMPANY, priority 2018, dated 2024).

What was measured:
Format in all cases: cell-based
human TLR7 = molecular target: T1, human TLR7 (Homo sapiens, UniProt Q9NYK1); test: TLR7 inhibition reporter assay (HEK-Blue SEAP); details: HEK-Blue cells overexpressing human TLR7, stimulated with gardiquimod 7.5 μM, 22 hour incubation
T1 construct: host or cells: HEK-Blue cells
T1 sequence (Q9NYK1 27-1049): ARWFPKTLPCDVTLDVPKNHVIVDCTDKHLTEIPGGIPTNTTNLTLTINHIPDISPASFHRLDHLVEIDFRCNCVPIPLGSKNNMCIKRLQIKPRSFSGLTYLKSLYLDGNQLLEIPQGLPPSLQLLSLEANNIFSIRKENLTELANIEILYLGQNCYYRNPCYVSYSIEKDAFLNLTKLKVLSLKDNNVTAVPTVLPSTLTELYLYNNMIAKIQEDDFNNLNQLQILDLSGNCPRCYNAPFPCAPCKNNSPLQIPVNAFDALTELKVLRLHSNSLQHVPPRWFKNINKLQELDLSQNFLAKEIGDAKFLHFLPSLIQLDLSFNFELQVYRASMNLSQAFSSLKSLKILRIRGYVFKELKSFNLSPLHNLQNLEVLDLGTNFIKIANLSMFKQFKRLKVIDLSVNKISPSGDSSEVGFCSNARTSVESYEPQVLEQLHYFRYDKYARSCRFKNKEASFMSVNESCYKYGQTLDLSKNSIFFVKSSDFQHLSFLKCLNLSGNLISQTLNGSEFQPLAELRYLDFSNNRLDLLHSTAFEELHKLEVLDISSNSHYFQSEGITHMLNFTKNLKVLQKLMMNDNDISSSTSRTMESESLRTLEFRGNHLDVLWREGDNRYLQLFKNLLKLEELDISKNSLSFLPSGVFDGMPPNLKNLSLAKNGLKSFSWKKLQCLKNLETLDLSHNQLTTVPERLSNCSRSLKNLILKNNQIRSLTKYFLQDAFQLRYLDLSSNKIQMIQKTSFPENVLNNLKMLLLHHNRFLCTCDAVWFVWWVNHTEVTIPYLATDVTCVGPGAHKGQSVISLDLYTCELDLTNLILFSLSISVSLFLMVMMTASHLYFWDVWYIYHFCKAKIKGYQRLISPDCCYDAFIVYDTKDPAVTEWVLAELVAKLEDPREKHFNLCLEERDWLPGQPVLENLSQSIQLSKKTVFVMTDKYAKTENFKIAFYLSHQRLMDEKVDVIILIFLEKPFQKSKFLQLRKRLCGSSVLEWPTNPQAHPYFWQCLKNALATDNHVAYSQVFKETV
Method in brief: (§1)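 Cells are seeded, given test compound across 0.05 nM to 50 μM, and after 30 min at room temperature stimulated with the receptor's agonist (gardiquimod 7.5 μM, R848 15.9 μM or ODN2006 5 nM for TLR7, 8, 9). SEAP is measured after 22 h at 37 °C.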

human TLR9 = molecular target: T2, human TLR9 (Homo sapiens, UniProt Q9NR96); test: TLR9 inhibition reporter assay (HEK-Blue SEAP); details: HEK-Blue cells overexpressing human TLR9, stimulated with ODN2006 5 nM, 22 hour incubation
T2 construct: host or cells: HEK-Blue cells
T2 sequence (Q9NR96 26-1032): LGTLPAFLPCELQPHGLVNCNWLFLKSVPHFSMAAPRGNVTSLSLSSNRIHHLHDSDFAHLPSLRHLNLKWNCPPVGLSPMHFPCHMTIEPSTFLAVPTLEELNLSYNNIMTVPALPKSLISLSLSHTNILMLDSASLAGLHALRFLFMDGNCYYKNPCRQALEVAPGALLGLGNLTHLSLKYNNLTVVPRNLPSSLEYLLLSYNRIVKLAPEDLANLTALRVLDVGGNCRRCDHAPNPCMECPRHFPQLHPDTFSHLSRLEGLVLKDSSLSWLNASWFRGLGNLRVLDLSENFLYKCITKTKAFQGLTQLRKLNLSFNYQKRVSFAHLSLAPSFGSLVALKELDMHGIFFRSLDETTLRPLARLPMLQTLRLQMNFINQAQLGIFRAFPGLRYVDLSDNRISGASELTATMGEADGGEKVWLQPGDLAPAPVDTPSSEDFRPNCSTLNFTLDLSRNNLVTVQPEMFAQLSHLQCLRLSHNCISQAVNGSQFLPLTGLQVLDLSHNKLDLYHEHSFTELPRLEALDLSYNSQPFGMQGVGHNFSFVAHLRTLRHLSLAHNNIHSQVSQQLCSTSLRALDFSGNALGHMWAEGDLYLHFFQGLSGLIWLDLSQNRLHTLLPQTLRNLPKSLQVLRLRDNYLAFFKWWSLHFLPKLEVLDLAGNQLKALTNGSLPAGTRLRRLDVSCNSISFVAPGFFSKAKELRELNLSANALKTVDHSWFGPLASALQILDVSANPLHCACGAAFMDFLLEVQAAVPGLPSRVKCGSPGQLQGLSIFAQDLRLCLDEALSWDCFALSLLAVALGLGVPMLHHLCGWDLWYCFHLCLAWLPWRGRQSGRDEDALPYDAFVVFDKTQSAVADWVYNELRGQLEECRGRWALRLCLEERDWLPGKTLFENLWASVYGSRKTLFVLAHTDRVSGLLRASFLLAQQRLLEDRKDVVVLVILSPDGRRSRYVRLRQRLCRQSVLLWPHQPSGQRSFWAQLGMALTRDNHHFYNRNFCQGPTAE
Method in brief: as §1

human TLR8 = molecular target: T3, human TLR8 (Homo sapiens, UniProt Q9NR97); test: TLR8 inhibition reporter assay (HEK-Blue SEAP); details: HEK-Blue cells overexpressing human TLR8, stimulated with R848 15.9 μM, 22 hour incubation
T3 construct: host or cells: HEK-Blue cells
T3 sequence (Q9NR97 27-1041): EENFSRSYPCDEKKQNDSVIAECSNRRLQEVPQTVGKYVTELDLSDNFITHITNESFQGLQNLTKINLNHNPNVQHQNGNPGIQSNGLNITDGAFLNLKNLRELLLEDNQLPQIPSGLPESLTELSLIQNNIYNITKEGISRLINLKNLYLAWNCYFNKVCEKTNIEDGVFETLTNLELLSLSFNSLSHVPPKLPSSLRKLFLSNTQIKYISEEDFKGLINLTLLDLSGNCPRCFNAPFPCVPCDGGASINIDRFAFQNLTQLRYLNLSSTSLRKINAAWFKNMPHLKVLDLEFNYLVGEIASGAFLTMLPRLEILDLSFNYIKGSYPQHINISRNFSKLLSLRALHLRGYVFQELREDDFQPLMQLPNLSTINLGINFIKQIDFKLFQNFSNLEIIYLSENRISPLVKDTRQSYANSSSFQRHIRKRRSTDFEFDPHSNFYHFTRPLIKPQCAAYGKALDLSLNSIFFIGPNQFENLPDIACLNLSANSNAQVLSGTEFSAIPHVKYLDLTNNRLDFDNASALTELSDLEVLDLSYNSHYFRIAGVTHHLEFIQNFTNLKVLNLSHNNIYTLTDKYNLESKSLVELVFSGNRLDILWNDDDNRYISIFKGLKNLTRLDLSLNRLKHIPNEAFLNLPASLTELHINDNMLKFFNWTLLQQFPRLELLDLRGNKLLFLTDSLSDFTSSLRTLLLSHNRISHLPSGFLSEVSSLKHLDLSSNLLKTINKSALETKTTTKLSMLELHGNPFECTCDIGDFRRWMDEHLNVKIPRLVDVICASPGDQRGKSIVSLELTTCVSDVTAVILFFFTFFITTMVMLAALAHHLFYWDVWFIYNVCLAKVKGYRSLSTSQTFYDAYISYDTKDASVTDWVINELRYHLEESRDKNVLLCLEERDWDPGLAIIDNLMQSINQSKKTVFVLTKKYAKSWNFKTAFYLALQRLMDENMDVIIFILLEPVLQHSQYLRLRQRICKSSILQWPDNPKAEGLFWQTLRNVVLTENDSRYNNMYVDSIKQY
Method in brief: as §1

Structure (SMILES) | IC50 (human TLR7) [nM] | IC50 (human TLR9) [µM] | IC50 (human TLR8) [nM]
Cc1cc2c(C3CCC(NCCS(C)(=O)=O)CC3)n[nH]c2cc1-c1cc(C)c2ncnn2c1 (stereo not drawn) [Example 30, 4-(5-methyl-6-(8-methyl-[1,2,4]triazolo[1,5-a]pyridin-6-yl)-1H-indazol-3-yl)-N-(2-(methylsulfonyl)ethyl) cyclohexan-1-amine] | 15.3 | 6.74 | 0.4
Cc1cc2c(OC3CCNCC3)n[nH]c2cc1-c1cc(C)c2ncnn2c1 [Example 167, 8-methyl-6-(5-methyl-3-(piperidin-4-yloxy)-1H-indazol-6-yl)-[1,2,4]triazolo[1,5-a]pyridine] | 5.4 | 0.631 | 0.2
Cc1cc(-c2ccc3c(C4CCNCC4)n[nH]c3c2)cn2ncnc12 [Example 17, 8-methyl-6-(3-(piperidin-4-yl)-1H-indazol-6-yl)-[1,2,4]triazolo[1,5-a]pyridine] | 388 | 3.19 | 328
Cc1cc(-c2cc(C)c3ncnn3c2)cc2[nH]nc(OCCN(C)C)c12 [Example 173, N,N-dimethyl-2-((4-methyl-6-(8-methyl-[1,2,4]triazolo[1,5-a]pyridin-6-yl)-1H-indazol-3-yl)oxy)ethan-1-amine] | 18.9 | 1.85 | 8
Cc1cc2c(N3CCNCC3)n[nH]c2cc1-c1cc(C)c2ncnn2c1 [Example 205, 8-methyl-6-(5-methyl-3-(piperazin-1-yl)-1H-indazol-6-yl)-[1,2,4]triazolo[1,5-a]pyridine] | 14.1 | 6.1 | 0.7
Cc1cc(-c2cc3[nH]nc(C4CCC(NCCS(C)(=O)=O)CC4)c3cc2C(C)C)cn2ncnc12 (stereo not drawn) [Example 126, 4-(5-isopropyl-6-(8-methyl-[1,2,4]triazolo[1,5-a]pyridin-6-yl)-1H-indazol-3-yl)-N-(2-(methylsulfonyl)ethyl) cyclohexan-1-amine] | 1.1 | 10.8 | 0.1
Cc1cc2c(C3CCNCC3)n[nH]c2cc1-c1cc(C)c2ncnn2c1C [Example 83, 5,8-dimethyl-6-(5-methyl-3-(piperidin-4-yl)-1H-indazol-6-yl)-[1,2,4]triazolo[1,5-a]pyridine] | 45 | 8.01 | 5.5
Cc1cc(-c2cc(C)c3ncnn3c2)cc2[nH]nc(OC3CCN(Cc4cn(C)nn4)CC3)c12 [Example 193, 8-methyl-6-(4-methyl-3-((1-((1-methyl-1H-1,2,3-triazol-4-yl)methyl)piperidin-4-yl)oxy)-1H-indazol-6-yl)-[1,2,4]triazolo[1,5-a]pyridine] | 13.2 | 3.73 | 1.6

The remaining molecules from weak to strong by IC50 (human TLR7), led by results:

IC50 (human TLR7) [nM] | IC50 (human TLR9) [µM] | IC50 (human TLR8) [nM] | Structure (SMILES)
76.2 | 0.661 | 2.8 | Cc1cc2c(C3CCCNC3)n[nH]c2cc1-c1ccc2ncnn2c1 (stereo not drawn) [Example 58, 6-(5-methyl-3-(piperidin-3-yl)-1H-indazol-6-yl)-[1,2,4]triazolo[1,5-a] pyridine]
23.8 | 3.96 | 0.9 | Cc1cc2c(C3CCN(CC(C)(C)O)CC3)n[nH]c2cc1-c1cc(C)c2ncnn2c1 [Example 67, 2-methyl-1-(4-(5-methyl-6-(8-methyl-[1,2,4]triazolo[1,5-a]pyridin-6-yl)-1H-indazol-3-yl)piperidin-1-yl)propan-2-ol]
18 | 1.31 | 1.4 | Cc1cc2c(C3CCN(CCNS(C)(=O)=O)CC3)n[nH]c2cc1-c1cc(C)c2ncnn2c1 [Example 69, N-(2-(4-(5-methyl-6-(8-methyl-[1,2,4]triazolo[1,5-a]pyridin-6-yl)-1H-indazol-3-yl)piperidin-1-yl)ethyl) methanesulfonamide]
6.4 | 8.4 | 0.5 | Cc1cc(-c2cc3[nH]nc(C4CCC(N5CC(OC(C)C)C5)CC4)c3cc2C(C)C)cn2ncnc12 (single isomer, unassigned) [Example 161, 6-(3-(4-(3-isopropoxyazetidin-1-yl)cyclohexyl)-5-isopropyl-1H-indazol-6-yl)-8-methyl-[1,2,4]triazolo[1,5-a]pyridine]
3.5 | 6.71 | 1.5 | Cc1cc(-c2cc3[nH]nc(C4CCC(N5CC6(C5)CS(=O)(=O)C6)CC4)c3cc2C(C)C)cn2ncnc12 (single isomer, unassigned) [Example 143, 6-(4-(5-isopropyl-6-(8-methyl-[1,2,4]triazolo[1,5-a]pyridin-6-yl)-1H-indazol-3-yl)cyclohexyl)-2-thia-6-azaspiro[3.3]heptane 2,2-dioxide]
0.5 | 5.66 | 0.1 | Cc1cc(-c2cc3[nH]nc(C4CCN(C(C)C)CC4)c3cc2C(C)C)cn2ncnc12 [Example 123, 6-(5-isopropyl-3-(1-isopropylpiperidin-4-yl)-1H-indazol-6-yl)-8-methyl-[1,2,4] triazolo[1,5-a]pyridine]
